≈ marks a conversion by molar mass, not a printed value. Calls of active or inactive are those of the source. No cut-off for these calls is given here.
Assays:
Vero = test: Cytotoxicity against African green monkey Vero cells assessed by reduction in cell viability incubated for 72 hrs by resazurin dye fluorescence based assay; details: Chlorocebus sabaeus
[1] = test system: Mycobacterium tuberculosis; test: Antitubercular activity against Mycobacterium tuberculosis H37Rv ATCC 27294 cultured in 7H12 media assessed as reduction in bacterial growth incubated for 7 days by resazurin dye fluorescence based assay; format: functional; details: H37Rv ATCC 27294, 168 h, time 7 day
[2] = test system: Mycobacterium tuberculosis; test: Antitubercular activity against Mycobacterium tuberculosis H37Rv ATCC 27294 cultured in GAS media assessed as reduction in bacterial growth incubated for 7 days by resazurin dye fluorescence based assay; format: functional; details: H37Rv ATCC 27294, 168 h, time 7 day
Mycolicibacterium aurum = test: Antitubercular activity against Mycobacterium aurum assessed as reduction in bacterial growth incubated for 42 hrs by broth microdilution assay; format: functional
Mycolicibacterium vaccae = test: Antitubercular activity against Mycobacterium vaccae assessed as reduction in bacterial growth incubated for 42 hrs by broth microdilution assay; format: functional
[3] = target: T1, Decaprenylphosphoryl-beta-D-ribose oxidase (Mycobacterium tuberculosis (strain ATCC 25618 / H37Rv)) (UniProt P9WJF1); test: Inhibition of Mycobacterium tuberculosis H37Rv DprE1 at 100 times of MIC incubated for 24 hrs by [14C]-acetate radioligand based thin layer chromatography
T1 sequence (whole entry): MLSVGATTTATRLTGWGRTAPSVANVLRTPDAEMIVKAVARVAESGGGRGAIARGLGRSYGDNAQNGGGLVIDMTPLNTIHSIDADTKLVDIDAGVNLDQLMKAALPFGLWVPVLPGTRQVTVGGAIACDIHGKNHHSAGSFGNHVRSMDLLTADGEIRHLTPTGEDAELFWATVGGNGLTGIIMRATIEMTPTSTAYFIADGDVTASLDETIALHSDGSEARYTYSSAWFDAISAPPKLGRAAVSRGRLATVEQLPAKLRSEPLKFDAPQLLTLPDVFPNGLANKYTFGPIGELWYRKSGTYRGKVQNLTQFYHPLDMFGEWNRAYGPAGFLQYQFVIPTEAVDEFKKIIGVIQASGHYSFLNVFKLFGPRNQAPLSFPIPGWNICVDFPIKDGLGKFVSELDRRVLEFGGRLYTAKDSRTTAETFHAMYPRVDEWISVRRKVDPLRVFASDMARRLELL

[4] = target: T1, Decaprenylphosphoryl-beta-D-ribose oxidase (Mycobacterium tuberculosis (strain ATCC 25618 / H37Rv)); test: Inhibition of reactivation of Mycobacterium tuberculosis H37Rv DprE1 at 100 times of MIC incubated for 24 hrs by [14C]-acetate radioligand based thin layer chromatography

Row | SMILES | IC50 (Vero) | MIC [1] | MIC [2] | MIC (Mycolicibacterium aurum) | MIC (Mycolicibacterium vaccae) | inhibition [3] | inhibition [4]
1 | CC(Nc1ccc([N+](=O)[O-])cc1C#N)c1ccc(Cl)cc1 (stereo not given) | 29 µM | > 5 µM | 5 µM (≈ 1.51 µg/mL) |  |  |  | 
2 | N#Cc1cc([N+](=O)[O-])ccc1Oc1ccc(Cl)c(Cl)c1 | > 50 µM | > 50 µM | 45 µM (≈ 13.9 µg/mL) |  |  |  | 
3 | O=[N+]([O-])c1cn2c(n1)OC[C@@H](OCc1ccc(OC(F)(F)F)cc1)C2 [PRETOMANID] | > 100 µM | 0.08 µM (≈ 0.0287 µg/mL) | 0.2 µM (≈ 0.0719 µg/mL) |  |  |  | 
4 | CCOC(=O)c1sc2c([N+](=O)[O-])cc(C(F)(F)F)cc2[n+]1[O-] |  | > 5 µM | 4.97 µM (≈ 1.67 µg/mL) |  |  |  | 
5 | COc1ccc(CNc2ccc([N+](=O)[O-])cc2C#N)cc1 | > 100 µM | > 5 µM | > 5 µM |  |  |  | 
6 | N#Cc1cc([N+](=O)[O-])ccc1NCc1cccc(F)c1 | > 100 µM | > 5 µM | 5 µM (≈ 1.36 µg/mL) |  |  |  | 
7 | N#Cc1cc([N+](=O)[O-])ccc1NC1CC1 | > 100 µM | > 5 µM | > 5 µM |  |  |  | 
8 | O=C(NCc1ccc2c(c1)CCO2)c1sc2c([N+](=O)[O-])cc(C(F)(F)F)cc2[n+]1[O-] | > 100 µM | 0.01 µM (≈ 0.00439 µg/mL) | < 0.002 µM | > 1 µM | < 0.001 µM |  | 
9 | C[C@H]1COC2(CCN(c3ccc([N+](=O)[O-])cc3C#N)CC2)O1 | > 100 µM | 2.4 µM (≈ 0.728 µg/mL) | 2 µM (≈ 0.607 µg/mL) |  |  |  | 
10 | COc1ccc(CNC(=O)c2sc3c([N+](=O)[O-])cc(C(F)(F)F)cc3[n+]2[O-])cc1 | 76 µM | 0.01 µM (≈ 0.00427 µg/mL) | 0.01 µM (≈ 0.00427 µg/mL) | > 1 µM | < 0.001 µM |  | 
11 | O=C(NCc1ccc(N2CCC(c3ccc(OC(F)(F)F)cc3)CC2)cc1)c1sc2c([N+](=O)[O-])cc(C(F)(F)F)cc2[n+]1[O-] | 81 µM | 0.025 µM (≈ 0.016 µg/mL) | 0.07 µM (≈ 0.0448 µg/mL) | > 1 µM | 0.02 µM (≈ 0.0128 µg/mL) |  | 
12 | C[C@H]1COC2(CCN(c3nc(=O)c4cc(C(F)(F)F)cc([N+](=O)[O-])c4s3)CC2)O1 [BTZ-043] | > 100 µM | < 0.004 µM | < 0.004 µM | > 1 µM | < 0.001 µM | Active | 
13 | NC(=O)c1sc2c([N+](=O)[O-])cc(C(F)(F)F)cc2[n+]1[O-] [CYCLAPOLIN 9] |  | 1.2 µM (≈ 0.369 µg/mL) | 2.19 µM (≈ 0.673 µg/mL) |  |  |  | 
14 | N#Cc1cc([N+](=O)[O-])ccc1N1CCC(Cc2ccccc2)CC1 | > 100 µM | > 5 µM | 2 µM (≈ 0.643 µg/mL) |  |  |  | 
15 | CC(C)(C)OC(=O)N1CCC(Oc2ccc(Nc3ccc([N+](=O)[O-])cc3C#N)cc2)CC1 | > 100 µM | > 5 µM | 3 µM (≈ 1.32 µg/mL) |  |  |  | 
16 | N#Cc1cc([N+](=O)[O-])ccc1N1CCN(c2ccc(C(F)(F)F)cc2)CC1 | > 100 µM | > 5 µM | 5 µM (≈ 1.88 µg/mL) |  |  |  | 
17 | COc1ccc(CNC(=O)c2nc3cc(C(F)(F)F)cc([N+](=O)[O-])c3s2)cc1 | > 100 µM | 0.7 µM (≈ 0.288 µg/mL) | 0.14 µM (≈ 0.0576 µg/mL) | > 1 µM | 0.008 µM (≈ 0.00329 µg/mL) | Active | inactive
18 | O=c1nc(N2CCN(CC3CCCCC3)CC2)sc2c([N+](=O)[O-])cc(C(F)(F)F)cc12 |  |  |  |  |  | Active | 
19 | O=C(NCc1ccc(N2CCC(c3ccc(OC(F)(F)F)cc3)CC2)cc1)c1nc2cc(C(F)(F)F)cc([N+](=O)[O-])c2s1 | > 100 µM | 0.24 µM (≈ 0.15 µg/mL) | 0.13 µM (≈ 0.0812 µg/mL) | > 1 µM | 0.125 µM (≈ 0.0781 µg/mL) | Active | inactive
20 | N#Cc1cc([N+](=O)[O-])ccc1Nc1ccc(OC2CCNCC2)cc1 | > 100 µM | > 5 µM | > 5 µM |  |  |  | 
21 | CCc1nc2ccc(Cl)cn2c1C(=O)NCc1ccc(N2CCC(c3ccc(OC(F)(F)F)cc3)CC2)cc1 [TELACEBEC] | > 100 µM | 0.03 µM (≈ 0.0167 µg/mL) | 0.007 µM (≈ 0.0039 µg/mL) | > 1 µM | 0.004 µM (≈ 0.00223 µg/mL) |  | 
22 | N#Cc1cc([N+](=O)[O-])ccc1-n1cnc2c(N)ncnc21 | > 100 µM | > 5 µM | > 5 µM |  |  |  | 
23 | C[C@H]1COC2(CCN(C(=O)c3sc4c([N+](=O)[O-])cc(C(F)(F)F)cc4[n+]3[O-])CC2)O1 | 79.6 µM | 0.23 µM (≈ 0.103 µg/mL) | 0.24 µM (≈ 0.107 µg/mL) | > 1 µM | 0.015 µM (≈ 0.00671 µg/mL) | Active | 
24 | N#Cc1cc([N+](=O)[O-])ccc1NCc1ccccn1 | > 100 µM | > 5 µM | > 5 µM |  |  |  | 
